Patent publication US8772348B2, “Materials and methods for pest control” (priority 2009, dated 2014)
Where two headings read alike, the source gives them in different places.

How the values were obtained:
[1] = system: Susceptible Musca domestica; experiment: Contact bioassay of emulsified concentrate formulations on filter paper discs; details: EC formulation on filter paper
Method: (§1) A commercially-available permethrin 57 g L^−1 EC (Ectiban EC 57; Universal Cooperatives, Minneapolis, Minn.) was included for comparison. Except rosalva, the 50% EC semiochemical formulations were generated by combining 500 mL AI, 430 mL canola oil (Publix, Lakeland, Fla.), 10 mL xylene, 50 mL Triton X-100 (Acros Organics Nev., Fair Lawn, N.J.) and 10 mL Agsolex-8 (International Specialty Products, Wayne, N.J.). The rosalva formulation contained all of the above-mentioned ingredients, with canola oil concentration reduced to 400 mL L^−1, Triton X-100 concentration increased to 75 mL L^−1, and 5 mL L^−1 Antifoam B silicone emulsion (Mallinckrodt Baker, Phillipsburg, N.Y.) included.
Briefly, Whatman No. 1 filter paper discs (63.58 cm^2) are impregnated with 1.5 ml serially diluted formulations in 20 emulsified concentrates and 50 emulsified concentrates, respectively, and subsequently dried for about an hour. Then, house flies are divided into seven sets: three sets as the experiment, three sets as the positive control, and one set as the negative control. Each set consists of twenty six-to-ten-day old adult flies. […] The positive control set is exposed to paper discs impregnated with geranyl acetone, rosalva or citronellol. The negative control set is exposed to paper discs impregnated with acetone solution. Throughout the exposure periods, each set is provided with 10% sucrose solution and sufficient air circulation. Ataxic flies are considered dead. The mortality rate and the LC values are determined using the same procedures as is illustrated in Example 2.

Aedes aegypti [2] = details: formulation on military fabric at LC99-based concentration, 2 h exposure, mortality 24 h after initial exposure
Method: Briefly, after mosquitoes are exposed to formulations for 2 hours at a concentration of LC99, each set is transferred into a separate glass jar, and held for another 24 hours. The mortality rate is measured with new mosquitoes on post-treatment days 2, 3, 5, 8 and 14 (Day 1 starts at 24 hours after the transfer), and is determined using the same procedures as are illustrated in Example 2.
Concentrations were generated from technical-based LC99 values obtained from a 2 h exposure period on military fabric. Fabric was treated on day 0 and was held until exposure on post-treatment day. Mosquitoes were exposed for 2 h, and mortality rate was assessed 24 h after initial exposure. Control contained formulation ingredients without semiochemicals.

Aedes aegypti [3] = details: EC formulation on military fabric
Method: as §1
Briefly, a piece of 10×10 cm^2 fabric (TenCate Defender™) is impregnated with 2 ml of serially diluted 20-emulsifiable concentrate or 50-emulsifiable concentrate formulations, respectively, and subsequently dried for about an hour. Also, six-to-ten-day-old, never blood-fed, adult female Ae. aegypti mosquitoes are obtained. The mosquitoes are divided into seven sets: three sets as the experiment, three sets as the positive control, and one set as the negative control. Each set consists of 20 mosquitoes. […] The positive control set is exposed to fabric pieces treated with geranyl acetone, rosalva or citronellol. The negative control set is exposed to fabric pieces treated with acetone solution. Throughout the exposure periods, each set is provided with 10% sucrose solution and sufficient air circulation. Ataxic mosquitoes are considered dead. The mortality rate and the LC values are determined using the same procedures as are illustrated in Example 2.

Aedes aegypti [4] = details: formulation on plywood panels at 1.67 mg cm^−2, 2 h exposure, mortality 24 h after initial exposure
Method: Briefly, after mosquitoes are assayed on unpainted plywood panel boards with formulation at a concentration of 1.67 mg cm^−2 for 2 hours, they are transferred into a separate glass jar, and held for another 24 hours. The mortality rate is measured daily for a continuous 4 days (Day 1 starts at 24 hours after the transfer), as is determined using the same procedures as are illustrated in Example 2.
Plywood panels (225 cm^2) were treated with chemicals at a rate of 1.67 mg cm^−2. Panels were treated on day 0 and was held until exposure on post-treatment day. Mosquitoes were exposed to chemicals for 2 h, and mortality rate was assessed 24 h after initial exposure. Control contained formulation ingredients without semiochemicals.

Row | Compound | LC90 ([1]; 24 h constant exposure) [μg cm^−2] | LC90 ([1]; 48 h constant exposure) [μg cm^−2] | % mortality on various days following treatment (Aedes aegypti [2]; day 1) [a %] | % mortality on various days following treatment (Aedes aegypti [2]; day 2) [a %] | % mortality on various days following treatment (Aedes aegypti [2]; day 5) [b %] | % mortality on various days following treatment (Aedes aegypti [2]; day 14) | LC90 (Aedes aegypti [3]; exposure period 2 hours) [μg cm^−2] | LC90 (Aedes aegypti [3]; exposure period 4 hours) [μg cm^−2] | LC90 (Aedes aegypti [3]; exposure period 24 hours) [μg cm^−2] | % mortality on various days following treatment (Aedes aegypti [4]; day 1) | % mortality on various days following treatment (Aedes aegypti [4]; day 2) | % mortality on various days following treatment (Aedes aegypti [4]; day 3) | % mortality on various days following treatment (Aedes aegypti [4]; day 4) | % mortality on various days following treatment (Aedes aegypti [2]; day 3) | % mortality on various days following treatment (Aedes aegypti [2]; day 8)
1 | CC(C)=CCCC(C)CCO (stereo not shown) [Citronellol, citronellol] | 580.00 | 886.04 | 95.00 | 77.50 | 35.00 | 2.50cd % | 1938.19 | 1434.18 | 700.43 | 94.00a % | 61.0b % | 26.0b % | 10.0b % |  | 
2 | C=CCCCCCCCCO [Rosalva, rosalva] | 1054.32 | 1022.88 | 95.00 | 87.50 | 35.00 | 0.00d % | 1276.16 | 1262.11 | 500.92 | 58.00b % | 34.0c % | 11.0% | 3.25.c % | 65.00b % | 27.50a %
3 | CC(=O)CC/C=C(\C)CCC=C(C)C [Geranyl acetone, geranyl acetone] | 1227.00 | 716.72 | 91.25 | 83.00 | 32.50 | 5.00c % | 934.62 | 742.61 | 338.61 | 84.00a % | 25.0c % | 8.0c % | 5.0c % | 30.00c % | 17.50c %
